Assay results: patent US5563142A, “Diaromatic substituted compounds as anti-HIV-1 agents” (The Upjohn Company, priority 1994, dated 1996)
Counter-ions that a name gives are not always drawn. Like-named read-outs stand apart in the source and are kept apart here.

Assays:
[1] = system: HIV in primary human peripheral blood lymphocytes; test: Primary PBL assay: inhibition of viral replication (p24 & RNA); format: cell-based; details: primary human lymphocytes infected with HIV, days three and four, read-out: PBL INHIBITION OF VIRAL REPLICATION (p24 & RNA) ED50
Protocol: ^3 The utility of the compounds of the invention is further
infection in primary peripheral blood lymphocytes (primary PBL assay). Th
primary PBL assay offers the following advantages:
(a) The assays are performed with primary human lymphocytes. Thereby,
undesired testing of transformed cell lines is avoided in which host cell
and virus may have undergone processes of mutual adaptation. Performance
of cell culture in serum containing media closely mimics the in vivo
situation. (b) The primary PBL assay distinguishes between true antiviral
effect which is due to the drug and cytostatic/cytotoxic reactions. (c)
Viral replication is precisely followed by kinetic measurement of viral
nucleic acids and proteins. (d) Nucleic acids (total HIVRNA intra and
extracellular) and protein (secreted p24) are measured in parallel which
permits one to differentiate between the compound's effect on virus
replication and on the expression of viral proteins. This leads to
additional information regarding the efficacy of the test compound. (e)
Tolerance of the cell culture against low amounts of organic solvents als
permits the investigation of hydrophobic substances. (f) The dose of the
drug causing half maximal suppression of virus replication is determined.
(g) The screening system is standardized and automated to a high degree.
The primary PBL assay uses the following procedure:
Effects of the compounds of the invention on cell proliferation are determined by lymphocyte proliferation assays. Starting with a 100 micromolar solution, the compound is serially diluted 10 fold. One tenth of the concentration of a compound causing half maximal inhibition of cellular proliferation is employed for all subsequent testing.
Peripheral human lymphocytes are isolated by density gradient centrifugation. After stimulation by mitogen the cells are infected with a standardized preparation of HIV. Subsequently, the infected cells are cultured in the presence of the drug for four days. Individual cultures are established to measure viral replication three and four days following infection. Untreated cells and AZT-treated cells are included as controls in parallel with the drugs under investigation.
The amount of viral core protein p24 synthesized and release by the infected cells is determined in the supernatant by the capture-ELISA technique on days three and four. By comparing with a standard preparation, the amount of protein produced by the virus infected cells is quantified.
The total amount of viral RNA synthesized by the infected lymphocytes is determined by a special nucleic acid hybridization on days three and four of culture. By including a standard preparation of HIV-RNA the amount of synthesized RNA is quantified.
In addition, viability of HIV-infected cells is determined in parallel with assays for viral p24 and RNA. In order to evaluate the half maximal antiviral effect of the drug, a concentration dependency of the drug action is measured.
Numerous examples of the compounds of the invention are assayed according to this procedure. The anti-HIV activity, as measured by the inhibition of the release of core p24 protein in HIV infected human lymphocytes, is used to calculate ED50 -antiviral (the concentration required to give a 50% reduction in p24 synthesis).

[2] = molecular target: T1, viral reverse transcriptase (Human immunodeficiency virus type 1 group M subtype B, UniProt P04585); test: Viral reverse transcriptase inhibition, cell free assay; format: biochemical, human immunodeficiency virus (HIV-1); details: poly rC or poly rG template; for inhibition at 100 µM: read-out: RT % INHIBITION (100 μM), 100 μM
T1 construct: Viral reverse transcriptase is found in extracts from bacterial clones; made in house; host or cells: Escherichia coli (extracts of bacterial clones, by the procedure of Larder et al., EMBO J. 6:3133-3137, 1987)
Excerpt: The utility of the diaromatic substituted piperazines (III), the anti-AIDS piperazines (IV) and the indoles (V) of this invention can be determined by their ability to inhibit viral reverse transcriptase, an enzyme essential for human immunodeficiency virus replication. This enzyme has characteristics which differentiate it from other known cellular polymerases and it is a unique enzyme which is not found in uninfected cells. Viral reverse transcriptase is found in extracts from bacterial clones prepared according to the procedure described in AIDS Virus Reverse Transcriptase defined by high level expression in Escherichia coli, EMBO J. 6:3133-3137 (1987). Inhibition of this enzyme is determined in a cell free assay which measures the level of radioactive precursors incorporated into DNA. Extracts prepared according to the procedure of Science, 1125-1129 (1981) are incubated in a mixture of inhibitor, 20 mM dithiothreitol, 60 mM sodium chloride, 0.05% NP-40, 10 mM magnesium chloride, 50 mM Tris pH 8.3, 10 μM [^35 S]-labeled deoxynuleoside-5'-triphosphate, 10 μg/ml RNA template (poly rC or poly rG) and 5 μg/ml DNA primer (oligo dG or oligo dT) for 30 minutes at 37° C. Incorporation of radio-labeled percursor is determined by spotting aliquots of the reaction mixture on DE81 paper, washing the papers to remove unincorporated percursor, drying and determining counts. The results (IC50 means the concentration, in μM of drug, required to inhibit the reverse transcriptase activity to the extent of 50%) of various assay(s) are combined and reported as % inhibition and IC50 (calculated).
^1 Viral reverse transcriptase is found in extracts from bacterial
clones prepared according to the procedure described by Larder, B.,
Purifoy D., Powell, K. and Darby, G., AIDS virus reverse transcriptase
defined by high level expression in Escherichia coli., EMBO J. 6,
3133-3137 (1987). Inhibition of this enzyme is determined in a cell free
assay which measures the level of radioactive precursors incorporated int
DNA. Extracts prepared according to the procedure of Kleid, D. G., et
al., Science, 1125-1129 (1981) are incubated in a mixture of inhibitor, 2
mM dithiothreitol, 60 mM sodium chloride, 0.05% NP40, 10 mM magnesium
chloride, 50 mM Tris pH 8.3, 10 μM [^35 Slabeled
deoxynucleoside5triphosphate, 10 μg/ml RNA template (poly rC or poly
rG) and 5 μg/ml DNA primer (oligo dG or oligo dT) for 15 minutes at
37°. Incorporation of radio labeled precursor is determined by
harvesting the trichloroacetic acid precipitated reaction mixtures on
glass fiber filters, drying, and determining counts. The results of
various assays are combined and reported as % inhibition at a 100 μM

[3] = Human immunodeficiency virus 1, Lymphocyte

Q: COc1cc2cc(C(=O)N3CCN(c4ncccc4NC(C)C)CC3)[nH]c2cc1OC [Example 72, 1-[5,6-Dimethoxyindolyl-2-carbonyl]-4-[3-(1-methylethylamino)-2-pyridinyl]piperazine] was tested. Which EC50 [1, 3] did it give?
A: The EC50 was < 10 nM.

Q: What about the inhibition at 100 µM [2] of the same compound?
A: The inhibition at 100 µM was 43 to 66%.

Q: Which results are given for CC(C)Nc1cccnc1N1CCN(C(=O)c2cc3cc(O)ccc3[nH]2)CC1 [Example 38, 1-[5-Hydroxyindolyl-2-carbonyl]-4-[3-(1-methylethylamino)-2-pyridinyl]piperazine]?
A: EC50 [1, 3]: < 1 nM; inhibition at 100 µM [2]: 96 to 98%

Q: Which results are given for CC(C)Nc1ccnnc1N1CCN(C(=O)c2cc3cc(F)ccc3[nH]2)CC1 [Example 50, 1-(5-Fluoroindolyl-2-carbonyl)-4-[4-(1-methylethyl)amino)-3-pyridazinyl]piperazine, methane sulfonate]?
A: EC50 [1, 3]: 100 nM; inhibition at 100 µM [2]: 84 to 97%

Q: Which EC50 [1, 3] does the source give for CC(C)Nc1cccnc1N(C)CCOC(=O)c1cc2ccccc2[nH]1 [Example 55] here?
A: The EC50 was 100 to 1000 nM.

Q: What about the inhibition at 100 µM [2] of the same compound?
A: The inhibition at 100 µM was 66 to 79%.

Q: For CC(C)Nc1cc(F)ccc1N1CCN(C(=O)c2cc3ccccc3[nH]2)CC1 [Example 74, 1-[Indolyl-2-carbonyl]-4-[2-(1-methylethylamino)-4-fluorophenyl]piperazine], which EC50 [1, 3] is on record?
A: The EC50 was 10 to 100 nM.

Q: What about the inhibition at 100 µM [2] of the same compound?
A: The inhibition at 100 µM was 82 to 84%.

Q: How did the EC50 [1, 3] turn out when CC(C)Nc1cccnc1N1CCN(C(=O)c2cc3cc4c(cc3[nH]2)OCO4)CC1 [Example 90, 1-[5,6-Methylenedioxyindolyl-2-carbonyl]-4-[3-(1-methylethylamino)-2-pyridinyl]piperazine] was run?
A: Its EC50 is < 1 nM.

Q: What about the inhibition at 100 µM [2] of the same compound?
A: Its inhibition at 100 µM is 96%.

Q: Which results are given for CC(C)Nc1cccnc1N1CCN(C(=O)c2cc3cc(OCC(=O)O)ccc3[nH]2)CC1 [Example 61, sodium salt]?
A: EC50 [1, 3]: 1000 nM; inhibition at 100 µM [2]: 91%

Q: Which results are given for CC(C)Nc1cccnc1OCCN(C)C(=O)c1cc2ccccc2[nH]1 [Example 58, 2-(2-(N-Methyl-N-(indolyl-2-carbonyl)amino)ethoxy)-3-(1-methylethylamino)pyridine]?
A: EC50 [1, 3]: < 100 nM; inhibition at 100 µM [2]: 94 to 98%

Q: With CC(C)Nc1cccnc1N1CCN(C(=O)c2cc3cc(OCc4ccccc4)ccc3[nH]2)CC1 [Example 36, 1-[5-Benzyloxyindolyl-2-carbonyl]-4-[3-(1-methylethyl)amino-2-pyridinyl]piperazine] as the compound, how does the EC50 [1, 3] read?
A: The EC50 was 10 nM.

Q: And the inhibition at 100 µM [2]?
A: The inhibition at 100 µM was 69 to 84%.

Q: Which EC50 [1, 3] does the source give for COc1cc2[nH]c(C(=O)N3CCN(c4ncccc4NC(C)C)CC3)cc2cc1F [Example 91, 1-[5-Fluoro-6-methoxyindolyl-2-carbonyl]-4-[3-(1-methylethylamino)-2-pyridinyl]piperazine] here?
A: The EC50 was 100 nM.

Q: And the inhibition at 100 µM [2]?
A: Its inhibition at 100 µM is 85 to 91%.

Q: With CC(C)Nc1cncnc1N1CCN(C(=O)c2cc3cc(F)ccc3[nH]2)CC1 [Example 48, 1-(5-Fluoroindolyl-2-carbonyl)-4-[5-(1-methylethylamino)-4-pyrimidinyl]piperazine] as the compound, how does the EC50 [1, 3] read?
A: Its EC50 is 10 to 100 nM.

Q: What about the inhibition at 100 µM [2] of the same compound?
A: The inhibition at 100 µM was 63 to 92%.

Q: Which EC50 [1, 3] does the source give for CCNc1cccnc1N1CCN(C(=O)c2cc3ccc(OC)c(C)c3[nH]2)CC1 [Example 71, 1-[6-Methoxy-7-methylindolyl-2-carbonyl]-4-(3-ethylamino-2-pyridinyl)piperazine] here?
A: Its EC50 is 10 to 100 nM.

Q: And the inhibition at 100 µM [2]?
A: Its inhibition at 100 µM is 88 to 95%.

Q: CC(C)Nc1cccnc1N(C)CCCCN(C)C(=O)c1cc2ccccc2[nH]1 [Example 124, N,N'-Dimethyl-N-(indolyl-2-carbonyl)-N'-[3-(1-methylethyl-amino)-2-pyridyl]-1,4-butanediamine] was tested. Which EC50 [1, 3] did it give?
A: The EC50 was > 100 nM.

Q: And the inhibition at 100 µM [2]?
A: The inhibition at 100 µM was 95%.

Q: CCOC(=O)COc1ccc2[nH]c(C(=O)N3CCN(c4ncccc4NC(C)C)CC3)cc2c1 [Example 60, 1-[5-(Ethoxycarbonylmethoxy)indolyl-2-carbonyl]-4-[3-(1-methylethylamino)-2-pyridinyl]piperazine] was tested. Which EC50 [1, 3] did it give?
A: Its EC50 is 100 to 1000 nM.

Q: And the inhibition at 100 µM [2]?
A: Its inhibition at 100 µM is 89 to 92%.

Q: With CCC(C)Nc1cccnc1N1CCN(C(=O)c2cc3ccccc3[nH]2)CC1 (centres unmarked) [Example 99] as the compound, how does the EC50 [1, 3] read?
A: The EC50 was 1 to 10 nM.

Q: And the inhibition at 100 µM [2]?
A: Its inhibition at 100 µM is 93 to 95%.

Q: Which EC50 [1] does the source give for CC(C)Nc1cccnc1N1CCN(C(=O)c2nc3ccccc3[nH]2)CC1 [Example 62] here?
A: The EC50 was 1000 to 10000 nM.

Q: What about the “RT % INHIBITION (100 μM)” value ([2]; 100 μM) of the same compound?
A: The value was 64-78%.

Q: For CNc1cccnc1N1CCN(C(=O)c2cc3cc(OC)ccc3[nH]2)CC1 [Example 64, 1-(5-Methoxyindolyl-2-carbonyl)-4-[3-(methylamino)-2-pyridinyl]piperazine], which EC50 [1, 3] is on record?
A: Its EC50 is ≤ 1000 nM.

Q: What about the inhibition at 100 µM [2] of the same compound?
A: Its inhibition at 100 µM is 88 to 94%.

Q: For CC(C)Nc1cccnc1N(C)CCCCCCN(C)C(=O)c1cc2ccccc2[nH]1 [Example 54, N,N'-Dimethyl-N-(indolyl-2-carbonyl)-N'-[3-(1-methylethyl-amino)-2-pyridinyl]-1,6-hexanediamine], which EC50 [1, 3] is on record?
A: Its EC50 is 100 nM.

Q: What about the inhibition at 100 µM [2] of the same compound?
A: Its inhibition at 100 µM is 70 to 80%.

Q: What does the source list for CNc1cccnc1N1CCN(C(=O)c2cc3cc(F)ccc3[nH]2)CC1 [Example 63, 1-(5-Fluoroindolyl-2-carbonyl)-4-[3-methylamino-2-pyridinyl]piperazine]?
A: EC50 [1, 3]: 1000 nM; inhibition at 100 µM [2]: 82 to 88%

Q: For CCNc1cccnc1N1CCN(C(=O)c2cc3cc(OC)ccc3[nH]2)CC1 [Example 16, 1-[5-Methoxyindolyl-2-carbonyl]-4-[3-(ethylamino)-2-pyridinyl]piperazine], which EC50 [1] is on record?
A: The EC50 was 3 nM.

Q: What about the inhibition at 100 µM [2] of the same compound?
A: The inhibition at 100 µM was 85 to 88%.

Q: How did the EC50 [1, 3] turn out when C=CCNc1cccnc1N1CCN(Cc2cc(C)c(OC)c(C)c2)CC1 [Example 116, 1-[4-Methoxy-3,4-dimethylbenzyl]-4-(3-(2-propenylamino)-2-pyridinyl]piperazine, hydrochloride] was run?
A: The EC50 was < 10000 nM.

Q: And the inhibition at 100 µM [2]?
A: The inhibition at 100 µM was 45 to 52%.

Q: Which EC50 [1, 3] does the source give for CC(C)(C)CNc1cccnc1N1CCN(C(=O)c2cc3cc(F)ccc3[nH]2)CC1 [Example 102, 1-[5-Fluoroindolyl-2-carbonyl]-4-[3-(2',2'-dimethylpropylamino)-2-pyridinyl]piperazine] here?
A: Its EC50 is 10000 nM.

Q: And the inhibition at 100 µM [2]?
A: The inhibition at 100 µM was 48%.
